# In patent US7700602B2, “Amino-5,5-diphenylimidazolone derivatives for the inhibition of β-secretase” (Wyeth LLC, priority 2004, dated 2010):
# Tests used:
# human BACE1 = human BACE1 (Homo sapiens, UniProt P56817); assay: Fluorescent kinetic assay, inhibition of BACE1 (WABC-6 peptide substrate); type: biochemical; conditions: 10 nM enzyme, 25 μM substrate WABC-6, pH 4.5, room temperature; read-out: IC50 (μM) BACE1;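 further: fluorescence monitored at 320 nm excitation and 420 nm emission every 40 s over 30 min, with the substrate cleavage rate taken from the linear slope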
# Sequence of human BACE1 (P56817 46-501): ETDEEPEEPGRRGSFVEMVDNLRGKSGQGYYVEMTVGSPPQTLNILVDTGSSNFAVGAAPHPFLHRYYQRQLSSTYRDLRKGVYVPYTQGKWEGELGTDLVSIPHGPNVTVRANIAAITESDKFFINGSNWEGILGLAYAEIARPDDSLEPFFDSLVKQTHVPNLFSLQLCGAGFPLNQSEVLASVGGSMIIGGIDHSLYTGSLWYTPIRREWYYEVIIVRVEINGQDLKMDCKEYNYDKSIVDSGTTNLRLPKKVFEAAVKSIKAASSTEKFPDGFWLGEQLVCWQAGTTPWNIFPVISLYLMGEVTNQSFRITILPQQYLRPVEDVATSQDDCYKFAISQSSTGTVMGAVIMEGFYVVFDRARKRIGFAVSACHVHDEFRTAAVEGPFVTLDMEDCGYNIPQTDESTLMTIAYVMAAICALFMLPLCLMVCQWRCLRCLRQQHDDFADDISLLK
# human BACE2 = molecular target: T1, human BACE2 (Homo sapiens, UniProt Q9Y5Z0); assay: Fluorescent Kinetic Assay for Human Recombinant BACE 2 (selectivity BACE1/BACE2); type: biochemical; conditions: selectivity BACE1 over BACE2; 1.5 nM human BACE2, 25 μM substrate, pH 4.5;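 further: cleavage rate from the linear slope of fluorescence (excitation 320 nm, emission 420 nm) recorded every 40 s over 30 min at room temperature, sodium acetate buffer with 0.05% CHAPS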
# T1 sequence (Q9Y5Z0 63-518): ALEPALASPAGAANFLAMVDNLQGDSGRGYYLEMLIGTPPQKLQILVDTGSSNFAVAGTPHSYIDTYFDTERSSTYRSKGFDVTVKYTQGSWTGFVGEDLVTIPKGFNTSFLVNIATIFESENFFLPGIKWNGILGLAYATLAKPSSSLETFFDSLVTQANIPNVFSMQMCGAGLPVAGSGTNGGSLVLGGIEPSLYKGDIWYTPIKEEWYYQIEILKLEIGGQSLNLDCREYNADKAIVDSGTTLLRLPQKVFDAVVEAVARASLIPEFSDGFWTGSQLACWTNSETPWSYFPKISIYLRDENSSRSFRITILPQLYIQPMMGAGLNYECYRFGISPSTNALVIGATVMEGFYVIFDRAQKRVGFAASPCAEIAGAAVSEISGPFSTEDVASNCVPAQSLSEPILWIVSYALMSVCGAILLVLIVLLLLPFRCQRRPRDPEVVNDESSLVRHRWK
SMILES,IC50 (human BACE1) [µM],BACE1/BACE2 selectivity (human BACE2)
"CCOc1ccc([C@@]2(c3cccc(-c4cccnc4F)c3)N=C(N)N(C)C2=O)cc1OCC [Example 103A, (5R)-2-Amino-5-(3,4-diethoxyphenyl)-5-[3-(2-fluoropyridin-3-yl)phenyl]-3-methyl-3,5-dihydro-4H-imidazol-4-one]",> 1,III (III = <10-fold selectivity)
"CCOc1ccc([C@]2(c3cccc(-c4cccnc4F)c3)N=C(N)N(C)C2=O)cc1OCC [Example 103B, (5S)-2-Amino-5-(3,4-diethoxyphenyl)-5-[3-(2-fluoropyridin-3-yl)phenyl]-3-methyl-3,5-dihydro-4H-imidazol-4-one]",0.01 to 0.1,II (II = 10-100-fold selectivity)
"COc1ccc([C@]2(c3ccc(F)c(-c4cncnc4)c3)N=C(N)N(C)C2=O)cc1C(F)(F)F [Example 107A, (5S)-2-Amino-5-(4-fluoro-3-pyrimidin-5-ylphenyl)-5-[4-methoxy-3-(trifluoromethyl)phenyl]-3-methyl-3,5-dihydro-4H-imidazol-4-one]",0.01 to 0.1,I (I = >100-fold selectivity)
"COc1ccc([C@@]2(c3ccc(F)c(-c4cncnc4)c3)N=C(N)N(C)C2=O)cc1C(F)(F)F [Example 107B, (5R)-2-Amino-5-(4-fluoro-3-pyrimidin-5-ylphenyl)-5-[4-methoxy-3-(trifluoromethyl)phenyl]-3-methyl-3,5-dihydro-4H-imidazol-4-one]",> 1,III (III = <10-fold selectivity)
CN1C(=O)C(c2ccc(OCCF)cc2)(c2cccc(-c3cncc(F)c3)c2)N=C1N (centres unmarked) [Example 110],0.01 to 0.1,II (II = 10-100-fold selectivity)
Cc1cc(C2(c3cccc(-c4cncnc4)c3)N=C(N)N(C)C2=O)ccc1OCCC1CCCCC1 (centres unmarked) [Example 123],0.11 to 1,II (II = 10-100-fold selectivity)
NC1=NC(c2ccc(OC(F)(F)F)cc2)(c2ccc(F)c(-c3cncnc3)c2)C(=O)N1CCF (centres unmarked) [Example 126],0.11 to 1,I (I = >100-fold selectivity)
NC1=NC(c2ccc(OC(F)(F)F)cc2)(c2ccc(F)c(-c3cccnc3F)c2)C(=O)N1CCF (centres unmarked) [Example 127],0.11 to 1,I (I = >100-fold selectivity)
CCN1C(=O)C(c2ccc(OC(F)F)cc2)(c2ccc(F)c(-c3cncc(F)c3)c2)N=C1N (centres unmarked) [Example 128],0.11 to 1,II (II = 10-100-fold selectivity)
"CN1C(=O)[C@](c2ccc(OC(F)F)cc2)(c2ccc(F)c(-c3cccnc3F)c2)N=C1N [Example 133A, (5S)-2-Amino-5-[4-(difluoromethoxy)phenyl]-5-[4-fluoro-3-(2-fluoropyridin-3-yl)phenyl]-3-methyl-3,5-dihydro-4H-imidazol-4-one]",0.11 to 1,III (III = <10-fold selectivity)
"CN1C(=O)[C@@](c2ccc(OC(F)F)cc2)(c2ccc(F)c(-c3cccnc3F)c2)N=C1N [Example 133B, (5R)-2-Amino-5-[4-(difluoromethoxy)phenyl]-5-[4-fluoro-3-(2-fluoropyridin-3-yl)phenyl]-3-methyl-3,5-dihydro-4H-imidazol-4-one]",0.01 to 0.1,II (II = 10-100-fold selectivity)
"CN1C(=O)[C@](c2ccc(OC(F)F)cc2)(c2ccc(F)c(-c3ccc(F)nc3)c2)N=C1N [Example 134A, (5S)-2-Amino-5-[4-(difluoromethoxy)phenyl]-5-[4-fluoro-3-(6-fluoropyridin-3-yl)phenyl]-3-methyl-3,5-dihydro-4H-imidazol-4-one]",0.11 to 1,III (III = <10-fold selectivity)
"CN1C(=O)[C@@](c2ccc(OC(F)F)cc2)(c2ccc(F)c(-c3ccc(F)nc3)c2)N=C1N [Example 134B, (5R)-2-Amino-5-[4-(difluoromethoxy)phenyl]-5-[4-fluoro-3-(6-fluoropyridin-3-yl)phenyl]-3-methyl-3,5-dihydro-4H-imidazol-4-one]",0.01 to 0.1,II (II = 10-100-fold selectivity)
